Source: PMC12703457, “Dynamic Anchoring of Peptides to the Extracellular Matrix Enabled by Boronic Acid” (Chembiochem, 2025)
“And” between values parts separate entries of the source, which are not always exact repeats. Identical values can stand only once. Like-named read-outs stand apart in the source and are kept apart here. Bridge positions count the residues as written; N and C are the ends. Square brackets hold non-standard residues; d marks the D form. Peptide text beside a SMILES is read from it. * marks the point of attachment. Benzoyl(4-B(OH)2) = O=C(c1ccc(B(O)O)cc1)*; PEG6 = NCCOCCOCCOCCOCCOCCOCCC(=O)O

Assays:
fibronectin = test: SDS‐PAGE of fibronectin incubated with boronic acid dye; format: binding; conditions: physiological pH; distinct fluorescence at 280 kDa
Experimental: Figure 1 A) Fluorescent microscopy of CDM. Green channel: Staining with 10 μM FL2 is shown. Red channel: Staining with a primary antibody (rabbit; Anti‐fibronectin) and secondary antibody (Anti‐Rabbit IgG, CFTM633) is shown. Third channel: Both channels are merged. The negative control was only stained with the antibodies. Every CDM with FL2 was washed several times with either pH 4.1, pH 7.4, or pH 9.4. B) SDS‐PAGE of fibronectin incubated with FL2 under different pH conditions. (1) FL2 incubation at pH 7.4. (2) FL2 incubation at pH 4.1. (3) Coomassie stain for fibronectin. M = molecular standard.
For quantification, fibronectin was immobilized on Enzyme‐Linked Immunosorbent Assay (ELISA) plates before incubation with FL2. Surfaces were similarly treated with acidic, neutral, and basic conditions, and the remaining fluorescence of FL2 was quantified with each washing step (Figure S1, Supporting Information).
SDS‐PAGE was performed as described.^[ [27] ^] For the separation of small molecular weight peptides, tricine‐gel‐electrophoresis (Novex 10–20% Tricine Gel, 1.0 mm × 12 well, Invitrogen by Thermo Fisher Scientific) was performed, using Mini Gel Tanks from Invitrogen under standardized conditions. […] The gel was destained with demineralized water or destaining buffer (10% 10x ws buffer, 20% methanol, 70% Mili‐Q water) and captured using a Gel‐Reader from BioRad.

[1] = cited from earlier work
Experimental: Binding constants of boronic acids and diols have been previously linked to their pKA and pH environment, with phenylboronic acid (pKA = 8.8) showing a binding optimum with ARS at a pH of 7 (1.1 mM^−1).^[ [20] ^]

[2] = ARS competition assay with D‐mannitol; format: binding; conditions: for Association constant K eq with D‐mannitol: ARS competition assay, pH 7.4, 0.1 M phosphate buffer, fluorescence at 572 nm, average of triplicate runs
Experimental: (§1) Affinity toward different monosaccharides was tested quantitatively by an Alizarin Red S (ARS) competition assay. ARS spectroscopic properties change upon the formation of a boronic ester with a boronic acid, resulting in fluorescence.^[ [4] ^, [19] ^] Additionally, the absorbance maximum of ARS shifts to shorter wavelengths upon ester formation, resulting in a color shift from red to orange, which facilitates the recognition of the formed bond (Figures S3 and S4, Supporting Information).
(§2) The assay was performed on a TECAN reader, Infinite M Plex, set up with 96‐well plates (Thermo Scientific, Nr. 137,103).

[3] = UV‐VIS spectra, shift of ARS absorbance maximum upon ester formation; format: binding; conditions: UV‐VIS spectra in the presence of ARS
Text: As a positive control, we used 4‐(dihydroxyboryl)benzoic acid coupled to the hydrophilic polymer PEG of 2000 Da, with a similar molecular weight. […] We continued to examine the binding of CBPA‐PEG‐MI to ARS in the presence of D‐glucamine, D‐(‐)‐fructose and D‐mannitol as a competition assay as outlined above (Figure 4B, Figure S11, Supporting Information).
Figure S10: UV-VIS spectra of various peptides bound to ARS or glucamine. CPBA was used as a positive control, while ARS serves as a negative control. (A) UV-VIS-spectra of the peptide CPBA-MI in the presence of ARS- or glucamine. (B) UV-VIS-spectra of the peptide CPBA-PEG-MI in the presence of ARS- or glucamine. (C) UV-VIS-spectra of the peptide Acetyl-MI in the presence of ARS- or glucamine.
Figure S11: Fluorescence decay at 572 nm measured in an ARS competition assay with CPBA-PEG-MI and the negative control acetyl-MI in the presence of rising concentrations of fructose (A) and mannitol (B) as model saccharides at pH 7.4.
Data are shown as mean ± STDEV (n = 3). […]

[4] = ARS competition assay with D‐glucamine; format: binding; conditions: for Interaction with D‐glucamine in ARS competition assay: fluorescence decay at 572 nm, rising D‐glucamine concentrations, pH 7.4, n = 3; for Association constant K eq with D‐glucamine: ARS competition assay, pH 7.4, 0.1 M phosphate buffer, fluorescence at 572 nm, average of triplicate runs
Experimental: as §1, §2

myostatin = target: T1, myostatin (Homo sapiens, UniProt O14793); test: Myostatin inhibition assay, SMAD luciferase reporter in HEK SBE cells; format: cell-based
T1 construct: purchased Bio-techne (Minneapolis)
T1 sequence (O14793 267-375): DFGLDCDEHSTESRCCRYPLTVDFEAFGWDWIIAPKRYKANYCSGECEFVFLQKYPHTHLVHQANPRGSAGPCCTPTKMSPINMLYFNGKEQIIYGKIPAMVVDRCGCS
Experimental: D) Myostatin inhibition by different MI peptides as determined via SMAD luciferase reporter with HEK SBE cells. 100 % activity corresponds to 4 nM myostatin. Data are shown as mean ± STDEV (n = 3).
The inhibition of all three MI peptides by myostatin was tested using a reporter gene luciferase assay in HEK293 cells, which monitored SMAD phosphorylation in response to varying myostatin concentrations, as described.^[ [24] ^]
HEK SBE cells (HEK‐293 cells stably transfected with a pGl3ti vector containing a Smad binding element at the promoter of the firefly luciferase gene and a hygromycin resistance gene) were used as previously described.^[ [24] ^] […] The total protein concentration of each sample was determined by the Bradford Protein concentration assay. […] The absorbance was measured with a plate reader (Infinite 200 PRO, Tecan). […] The injector of the plate reader was primed with luciferase assay reagent. The plate reader was programmed to automatically inject 100 μL of the reagent into each well and immediately measure the luminescence for 10 s. […] Relative light units per μg of total protein were calculated to analyze the inhibition of myostatin by all three MI peptides.

[5] = ARS competition assay with D‐(‐)‐fructose; format: binding; conditions: for Association constant K eq with D‐(‐)‐fructose: ARS competition assay, pH 7.4, 0.1 M phosphate buffer, fluorescence at 572 nm, average of triplicate runs
Experimental: as §1, §2

[6] = Alizarin Red S (ARS) assay, association of boronic acid with ARS; format: binding; conditions: for Association constant K eq with ARS: ARS assay, pH 7.4, 0.1 M phosphate buffer, fluorescence at 572 nm, average of triplicate runs
Experimental: Affinity toward different monosaccharides was tested quantitatively by an Alizarin Red S (ARS) competition assay. ARS spectroscopic properties change upon the formation of a boronic ester with a boronic acid, resulting in fluorescence.^[ [4] ^, [19] ^] […] The affinity of aryl boronic acid to 1,2‐diols is known to be dependent on modifications of the underlying benzene.

[7] = tested on: cell‐derived decellularized extracellular matrices (CDMs) from NIH‐3T3 fibroblasts; test: Fluorescence imaging of CDMs with CPBA‐NQEQVSPL‐5/6‐carboxyrhodamine 110; format: binding, murine; conditions: fluorescence microscopy
Experimental: The hydrophilic PEG6 linker within the peptide structure was crucial to ensure sufficient water solubility.
For visualization of fibronectin, the CDMs were first blocked using 1x Roti‐Block for 60 min at RT and washed once with PBS. A combination of Rabbit Anti‐Fibronectin antibody (F3648) (1:400 in PBS, overnight at 4 °C) and Anti‐rabbit IgG (H + L), F(ab’)2 Fragment (Alexa Fluor 647 Conjugate) 4414 (1:200 in PBS, 90 min at RT) was used. […] The dye was removed, and the matrix was washed several times with one of […] different buffers (carbonate/bicarbonate, pH 9.4; 1x PBS, pH 7.4; 1x PBS, pH 8.0, and sodium‐acetate, pH 4.1). Images were taken on an Axio Observer.Z1 microscope equipped with a 63x Plan‐Apochromat […]/1.40 Oil DIC M77 objective (Zeiss), 38 HE Green Fluorescent Reflector (λex = 450–490 nm λem = 500–550 nm), 50 Cy5 Reflector (λex = 625–655 nm λem = 665–715 nm) and a mercury vapor short‐arc lamp.
Figure S9: (A) Fluorescent microscopy of CDM. Green channel: Staining with CBPA-[…]-5/6-Carboxyrhodamine
110 is shown. Red channel: Staining with a primary antibody (rabbit; Anti-fibronectin) and secondary antibody (Anti-Rabbit
IgG, AF647) is shown. Third channel: Both channels are merged. The negative control was only stained with the antibodies.
Every CDM with the CPBA-Peptide was washed several times with either pH 4.1, pH 7.4, pH 8.0 or pH 9.4. […]

[8] = fluorescence decay at 572 nm, rising sugar concentrations, pH 7.4, n = 3

O=C1c2ccccc2C(=O)c2c1cc(S(=O)(=O)O)c(O)c2O [ARS, Alizarin Red S]
Binding to fibronectin after gel electrophoresis (fibronectin): confirmed

OB(O)c1ccccc1 [phenylboronic acid]
pKA [1]: 8.8
Binding constant with ARS at binding optimum ([1]; pH of 7): 1.1 mM⁻¹

CSCC[C@@H]1NC(=O)[C@H](Cc2c[nH]c3ccccc23)NC(=O)[C@@H]2CCCN2C(=O)[C@H](Cc2c[nH]c3ccccc23)NC(=O)[C@H](CCCNC(=N)N)NC(=O)[C@H]([C@@H](C)O)NC(=O)[C@@H](NC(=O)[C@H](CCC(N)=O)NC(=O)CNC(=O)[C@H](CCC(N)=O)NC(=O)[C@@H](NC(=O)[C@H](C)NC(=O)[C@@H](NC(=O)CCOCCOCCOCCOCCOCCOCCNC(=O)c2ccc(B(O)O)cc2)C(C)C)[C@@H](C)O)CSSC[C@@H](C(=O)N2CCC[C@H]2C(=O)N2CCC[C@H]2C(=O)N[C@@H](CCC(N)=O)C(=O)NCC(=O)N[C@@H](Cc2c[nH]c3ccccc23)C(=O)NCC(=O)NCCOCCOCCOCCOCCOCCOCCC(N)=O)NC1=O [CPBA‐PEG‐MI] ({Benzoyl(4-B(OH)2)-PEG6}-VATQGQCTRWPWMCPPQGWG[PEG6]-NH2; disulfide 7-14)
Displacement of ARS from the peptide complex by D‐mannitol [2, 8]: not able to displace ARS
Shift of the absorbance maximum of ARS upon ester formation [3]: shift of the absorbance maximum of ARS to shorter wavelengths
Interaction with D‐glucamine in ARS competition assay [4]: strongest interaction
IC50 (myostatin): 1500 nM
Displacement of ARS from the peptide complex by D‐(‐)‐fructose [5, 8]: not able to displace ARS

NQEQVSPL [CPBA‐peptide]
Association constant K eq with D‐mannitol [2]: 0.22 ± 0.0 mM⁻¹
Association constant K eq with D‐glucamine [4]: 3.87 ± 0.7 mM⁻¹
Association constant K eq with ARS [6]: 2.35 ± 0.1 mM⁻¹
Association constant with ARS relative to unconjugated CPBA ([6]; pH 7.4, CPBA‐peptide versus CPBA): 1.6 fold
Association constant K eq with D‐(‐)‐fructose [5]: 0.29 ± 0.0 mM⁻¹

CSCC[C@@H]1NC(=O)[C@H](Cc2c[nH]c3ccccc23)NC(=O)[C@@H]2CCCN2C(=O)[C@H](Cc2c[nH]c3ccccc23)NC(=O)[C@H](CCCNC(=N)N)NC(=O)[C@H]([C@@H](C)O)NC(=O)[C@@H](NC(=O)[C@H](CCC(N)=O)NC(=O)CNC(=O)[C@H](CCC(N)=O)NC(=O)[C@@H](NC(=O)[C@H](C)NC(=O)[C@@H](NC(C)=O)C(C)C)[C@@H](C)O)CSSC[C@@H](C(=O)N2CCC[C@H]2C(=O)N2CCC[C@H]2C(=O)N[C@@H](CCC(N)=O)C(=O)NCC(=O)N[C@@H](Cc2c[nH]c3ccccc23)C(=O)NCC(=O)NCCOCCOCCOCCOCCOCCOCCC(N)=O)NC1=O [Acetyl‐MI] (Ac-VATQGQCTRWPWMCPPQGWG[PEG6]-NH2; disulfide 7-14)
Interaction with D‐glucamine in ARS competition assay [4]: nonbinding
IC50 (myostatin; HEK SBE luciferase reporter cells, 4 nM myostatin, 48 h, 37 °C, n = 3, read-out: IC50, inhibition of myostatin‐induced SMAD phosphorylation): 1700 nM

O=C(O)c1ccc(B(O)O)cc1 [CPBA, 4‐Carboxy‐phenyl‐boronic acid, reference compound]
Association constant K eq with D‐mannitol [2]: 0.08 ± 0.0 mM⁻¹
Association constant K eq with D‐glucamine [4]: 2.09 mM⁻¹ and 2.09 ± 0.6 mM⁻¹
Association constant K eq with ARS [6]: 1.46 ± 0.3 mM⁻¹
Association constant K eq with D‐(‐)‐fructose [5]: 0.11 ± 0.0 mM⁻¹

CPBA–NQEQVSPL–5/6‐carboxyrhodamine 110
pH‐dependent binding to glycan structures of the ECM compared with FL2 ([7]; 100 μM, three hours at pH 9.4, washed at pH 4.1, 7.4, 8.0 or 9.4): comparable pH‐dependent binding behavior
Binding to CDM at pH 7.4 compared with FL2 ([7]; pH 7.4 wash): quantitatively weaker
